According to patent US12594248B2, “Stress management in human subjects in need thereof” (YEDA RESEARCH AND DEVELOPMENT CO. LTD., priority 2020, dated 2026):
Blank lines part the entries; values can stand above or below the compound they belong to.

Columns and labels:
[1] = tested on: men and women participants; assay: Attention test (Stroop test), Example 2; assay type: in vivo, human; conditions: HEX vs placebo group
Description: (§1) Sixty-four participants (35 women) with an average age of 27.34 (SD 4.65), half participated in the HEX group and the other half in the PLACEBO group. The study was conducted in Ra'anana, Israel in a rented office using a laptop computer.
(§2) Participants came in separately into the Ra'anana office, a research assistant (RA) welcomed them. After a short brief, participants were introduced with a bottle of liquid and were required to smell the bottle for 1 minute (with the instruction to breath normally). After being exposed to the smell, the RA explained about the three tasks (memory, attention, public speaking—the stressor). Participants reported their stress level before and after each assignment (7 times). Just before the last task, participants were informed that this task was canceled and then were asked to report their stress level for the last time.

[2] = tested on: men and women participants; assay: Average heart rate (HR) along the experiment, Example 2; assay type: in vivo, human; conditions: men and women together; FIG. 5, p<0.0001
Description: as §1, §2

[3] = tested on: men and women participants; assay: Memory test (free recall), Example 2; assay type: in vivo, human; conditions: HEX vs placebo group
Description: as §1, §2

[4] = tested on: men and women participants; assay: Subjective stress level reports, men and women, Example 2; assay type: in vivo, human; conditions: two-way ANOVA, gender and fragrance condition; F(1,56)=5.1, p=0.03; no interaction; HEX vs PLACEBO; FIG. 4
Description: as §1, §2
The first stress report was given pre-manipulation; therefore, it may shed light upon the general stress level of the participants. Mean score for first stress report was 3.32 (SD 1.68) for men and 2.59 (SD 1.76) for women.
A two-way ANOVA was conducted with average stress (measures 2-6) as a dependent variable and gender and fragrance condition as the independent variables. […] Main effect for fragrance was also significant, F(1,56)=5.1, p=0.03. No interaction was found (F<0.1). […]

male subjects [5] = assay: Memory test (free recall), Example 1; assay type: in vivo, human; conditions: FIG. 3
Description: (§3) • 30 male subjects, 15 using Olfactory Blue (OB—Hexadecanal) and 15 with placebo. […] Equipment • Computer/laptop with test script and cognitive tests • HR wrist monitor and Central unit • Video camera • 2×50 ml identical bottles—one with OB (solvent+Hexadecanal) and one only with dipropylene glycol (DPG) Goals and KPIs.
(§4) • Subjects—men only [mean age: 24.97 (SD=1.92)]. • An isolated office space (to avoid subject distraction) is prepared with a table and chair. • The computer, Modify standalone and the video recording are positioned and prepared. […] End of experiment • Experimenter debriefs subject—asks for general comments and feeling • Subjective stress level • End of test Measurements The following physiological measurements are recorded: 1. […] The following psychological/subjective measurements are recorded: 2. Memory test—the ability to remember a series of words seen one after the other and after conducting several simple mathematical tasks; scored by counting number of words correctly remembered. […] Subjective stress level—the stress level the subject feels at that moment; recorded on the computer.

[6] = tested on: mouse OR37 receptor subtype B; conditions: Klein et al [15]; cited from earlier work
male subjects [7] = assay: Subjective stress level reports under a lecture stressor, Example 1; assay type: in vivo, human; conditions: scale 0-10, FIG. 1
Description: For experiments 0.083M of Hexadecanal (HEX) dissolved in propylene glycol was used. Heating it for a few minutes eases the process (37° C. is sufficient). The mixture was aliquoted into daily portions, such that we thawed a daily serving prior to experiments. Participants were exposed to 100 ul of 0.083M HEX in 10 consecutive sniffs from a jar, and then taped a band aid with 30 ul on the upper lip. The band aid stayed to assure exposure throughout the experiment. Since propylene glycol has an odor, we used a masking odor.
• 30 male subjects, 15 using Olfactory Blue (OB—Hexadecanal) and 15 with placebo. […]
as §4, with “computer. […]” for “computer.”

male subjects [8] = assay: Stroop test (attention, cognitive performance), Example 1; assay type: in vivo, human; conditions: FIG. 2
Description: as §3
• Subjects—men only [mean age: 24.97 (SD=1.92)]. • An isolated office space (to avoid subject distraction) is prepared with a table and chair. • The computer, Modify standalone and the video recording are positioned and prepared. Test Running • Subject is introduced and asked to take place in front of computer • Experimenter briefs the subject on the test procedure in general • Subject fills in a consent form (including GDPR consent) and signs the receipt for the money (see form in annex) • Subject fills in personal data on the computer • Experimenter presents the scent bottle (OB or Placebo) given to them by an assistant (who records which bottle has been given) to the subject to smell five sniffs within one minute (2% in the bottle). • Subject is asked about their subjective stress level on a scale between 0 (no stress at all) to 10 (extreme stress)—questionnaire on the computer • Experimenter completes the briefing and introduce 3 assignments to the participants: a memory task, a Stroop task and the stress manipulation—subject will have to give a 5 min lecture to an audience on one of three given topics—stressor. • Subject starts the experiment by following instructions on the computer: 1. […] End of experiment • Experimenter debriefs subject—asks for general comments and feeling • Subjective stress level • End of test Measurements The following physiological measurements are recorded: 1. […] The following psychological/subjective measurements are recorded: 2. Memory test—the ability to remember a series of words seen one after the other and after conducting several simple mathematical tasks; scored by counting number of words correctly remembered. […] Subjective stress level—the stress level the subject feels at that moment; recorded on the computer.

[9] = tested on: mouse OR37 receptor subtype C; conditions: Klein et al [15]; cited from earlier work
[10] = tested on: mouse OR37 receptor subtype A; conditions: Klein et al [15]; cited from earlier work

attention (Stroop test), difference between groups [1]: did not differ
memory (free recall), difference between groups [3]: did not differ
free recall assignment, difference between conditions (male subjects [5]): no differences
Stroop test number of errors, blue vs placebo (male subjects [8]): No differences
Stroop test reaction time, blue vs placebo (male subjects [8]): No differences
cognitive performance relative to placebo (male subjects [8]; as evidenced by the Stroop test): does not affect cognitive performance
SMILES: CCCCCCCCCCCCCCCC=O [HEX, Hexadecanal]
average HR vs placebo group [2]: lower
average stress (measures 2-6), main effect for fragrance [4]: significant
activation of OR37 subtype B [6]: activated
subjective stress report, difference between groups (male subjects [7]; stress0 (baseline) and stress4 (end, after being told there will be no lecture)): no difference
subjective stress report vs Placebo group (male subjects [7]; stress1, stress2, stress3 (after assignments and smelling, after memory test, after Stroop test), 15 vs 15 men, p<0.01): significantly lower degree

SMILES: CCCCCCCCCCCCCCCCC=O [heptadecanal]
activation of OR37 subtype C [9]: activated

SMILES: CCCCCCCCCCCCCCC=O [pentadecanal]
activation of OR37 subtype A [10]: activated
